What was measured:
[1] = pH dependency of the 19F NMR chemical shift (ppm/pH); assay type: physicochemical; conditions: change of 19F chemical shift per pH unit
From the text: Determination of the pH value with the aid of NMR spectroscopy is based on the measurement of the signals from a chemical compound which is in a pH-dependent, reversible equilibrium. If this equilibrium is slow with respect to the NMR time scale, then the signals of all components can be obtained, and the signal intensities correspond to the concentrations of the equilibrium components. In contrast thereto, with a fast equilibrium, only one signal can be measured, and the chemical shift is given by the chemical displacement of the equilibrium components and their concentration.
In a two-component equilibrium, with knowledge of the pKa value and the chemical shift of the components, it is then possible to calculate the pH value with the aid of the Henderson-Hasselbalch equation.
The frequency (chemical shift) of a fluorine line is determined by the position of the F atom in the molecule. This also holds true, in principle, for all other atomic nuclei, but the chemical shift is especially strongly pronounced in case of the fluorine atom. In order to observe and/or quantify a shift of the fluorine signal, a related (reference) line is needed. This frequency line can be the ^1 H signal, an external F standard or, respectively, an unchanging F line which is likewise within the area to be measured. […]

LD50, mouse = conditions: in vivo
pKa (37° C.) = assay type: physicochemical

| Structure (SMILES) | ppm/pH [1] [ppm/pH] | LD50 (LD50, mouse) [µmol/kg] | pKa (pKa (37° C.)) |
| --- | --- | --- | --- |
| O=C(O)CN(CC(=O)O)C(=O)CS(=O)(=O)Nc1ccc(F)cc1C(F)(F)F [Example 10, 2-[2-[N-(4-Fluoro-2-trifluoromethylphenyl)sulfamoyl]acetylimino]diacetic Acid] | 4.94 | ≤ 7500 | 6.68 |
| O=C(O)CCNC(=O)CCS(=O)(=O)Nc1ccc(F)cc1C(F)(F)F [Example 48, 3-[3-[N-(4-Fluoro-2-trifluoromethylphenyl)sulfamoyl]propionylamino]propionic Acid] | 5.21 | 4000 | 6.91 |

Source: US5210290A, “Fluorobenzenesulfonamides” (Schering Aktiengesellschaft, priority 1990, dated 1993)
